In patent US20260022322A1, “MULTIMODAL BIOPHYSICAL CHARACTERIZATION APPARATUS, SYSTEM, METHOD, AND USE” (Yigong Ruixin (Xiamen) Technology Co., Ltd, priority 2023, published 2026):

What was measured:
[1] = system: macrophage cell line THP-1; test: Nuclear hardness of activated THP-1 by magnetic material method and fluorescence method; assay type: cell-based; conditions: THP-1 activated to M1-type macrophages
Description: S1: Provide a chip whose surface is covered with PDMS nano-magnetic micropillars. The micropillars contain a fluorescent substance and have an extracellular matrix coating.
S2: Culture the macrophage cell line THP-1 on this chip. Contact between the THP-1 cells and the chip is made by controlling the height of the culture medium.
S3: Add lipopolysaccharide (LPS) to the culture medium to activate the THP-1 cells, causing them to transform into M1-type macrophages.
S4: After several days of cultivation, use the magnetic material method to turn on the magnetic field and measure the reflected light attenuation. After turning off the magnetic field, measure the light reflection signal attenuation value and frequency of each micropillar, and sequentially calculate the softness/hardness of the nucleus at each position.
S5: Use paraformaldehyde to fix the cells on the chip, and use DAPI to stain the nuclei.
S6: Using the fluorescence method, use a confocal microscope to perform a Z-axis tomographic scan from the top to the bottom of the micropillars, and analyze the depth of the DAPI signal of the nucleus between the micropillars. […]
The results measured by the magnetic material method and the fluorescence method are the same (FIG. 33), proving that the accuracy of measuring nuclear hardness by the magnetic material method has been cross-validated by the fluorescence method.

tumor cells = test: Immune-tumor cell interaction on cell mechanics chip with drug intervention; assay type: cell-based
Description: S1. Prepare the chip: Select a cell mechanics chip with a micropillar structure. The top of the micropillars is coated with a suitable extracellular matrix (ECM) to promote the attachment and growth of tumor cells and immune cells. Use an anti-adhesion treatment on the side surfaces of the micropillars and in the space between them.
S2. Seed tumor cells and immune cells: Seed tumor cells and immune cells (such as NK cells or T cells) separately on the mechanics chip, allowing them to interact.
S3. Monitor the mechanical properties of the tumor cells: Use the light reflection signal and micropillar deflection to monitor in real-time the changes in the cell mechanical force and hardness of the tumor cells during their interaction with the immune cells.
S4. […] Softer tumor cells (with smaller cell mechanical force) are difficult for immune cells to recognize and kill.
S5. Drug intervention: Add the drug JAS, which makes tumor cells harder, to the culture medium, and observe the changes in the cell mechanical force and hardness of the tumor cells.
S6. Evaluate the effect of drug intervention: Under the action of the drug, the tumor cells become harder, and the cell mechanical force increases (FIG. 32). It was observed that the killing effect of immune cells on tumor cells was enhanced accordingly.

[2] = drug added to culture medium, micropillar chip, light reflection signal (FIG. 32)

Compound	sagging depth of the nucleus between the micropillars ([1]; DAPI, confocal Z-axis scan (fluorescence method))	nuclear hardness ([1]; magnetic material method and fluorescence method gave the same result (FIG. 33))	cell mechanical force of the tumor cells (tumor cells; [2])	hardness of the tumor cells (tumor cells; [2])	killing effect of immune cells on tumor cells (tumor cells; tumor cells co-seeded with immune cells (such as NK cells or T cells), under the action of the drug)
lipopolysaccharide [LPS]	becomes deeper	softer	–	–	–
C/C1=C\[C@H](C)C[C@H](C)OC(=O)C[C@H](c2ccc(O)cc2)NC(=O)[C@@H](Cc2c(Br)[nH]c3ccccc23)N(C)C(=O)[C@H](C)NC(=O)[C@@H](C)C1 [JAS]	–	–	increases	become harder	enhanced
